Source: patent US8957192B2, “Human cytotoxic T-lymphocyte epitope and its agonist epitope from the non-variable number of tandem repeat sequence of MUC-1” (The United States of America, as represented by the …, priority 2003, dated 2015)
Values joined by “and” are separate entries in the source; they are usually repeats but may differ in a detail not shown here. Equal values may be shown once.

Key:
HLA-A2 molecule [1] = molecular target: HLA-A2 molecule (Homo sapiens, UniProt P04439, I166T/I218V/L300P/L318F/N151K/N90K/P208A/P217A/Q86G/Q94H/R138H/R169H/T345S); experiment: T2 cell binding assay: peptide binding to HLA-A2 by flow cytometry
Method: In this assay, increased stability (accumulation) of HLA-A2 molecules on the surface of T2 cells as a consequence of peptide binding is measured by increased binding of antibody directed against HLA-A2 molecule. Briefly, 1×10^6 cells in serum-free Iscove's modified Dulbecco's complete medium were incubated with peptides at a concentration of 50 μg/ml in 24-well culture plates at 37° C. in 5% CO2. Flow cytometry for peptide binding was performed using T2 cells and single-color analysis. After cells were washed three times in DPBS, as described above, they were incubated for 1 h with a 1:100 dilution of HLA-A2-specific MAb (One Lambda, Inc.) per 10^6 cells. UPC-10 (Cappel/Organon Teknika) was used as isotype control. The cells were then washed three times and incubated with 1:100 dilution of FITC-labeled anti-mouse IgG (BD Biosciences). Analysis was conducted with the FACScan, as described above. Cells were maintained on ice during all cell preparation and staining.
The primary amino acid sequence of human MUC-1 was analyzed for consensus motifs for novel HLA-A2 binding peptides. […] The CEA CAP1-6D peptide and a NCA peptide were used as a positive and negative control, respectively.

[2] = test system: MUC-1-specific T-cell lines T-23-P-92, T-23-P-93L, T-18-P-92, T-18-P-93L; experiment: IFN-γ production by T-cell lines from two pancreatic cancer subjects stimulated with peptide-pulsed DCs; assay type: cell-based, human; settings: IVS-4; allogeneic DCs pulsed 25 μg/ml; effector-to-APC 10:1; 24 h
T-1191-MUC-1 cells [3] = experiment: IFN-γ production (ELISA) by T-1191-MUC-1 cells stimulated with peptide-pulsed autologous B cells; assay type: cell-based, human; settings: for Production of IFN-γ, with peptide: T-1191-MUC-1 at IVS-3, autologous EBV-B cells pulsed 25 μg/ml, effector-to-APC 1:3, 24 h
Method: (§1) Supernatants of T cells exposed for 24 h to peptide-pulsed autologous EBV-transformed B cells, in IL-2-free medium at various peptide concentrations, were screened for secretion of IFN-γ using an ELISA kit (R & D Systems, Minneapolis, Minn.). The results were expressed in pg/ml. A CBA system (BD PharMingen, San Diego, Calif.) was also used to determine the secretion of multiple cytokines by specific T cells. The CBA system uses the fluorescence detection by flow cytometry to measure soluble analyses in a particles-based immunoassay. The BD human Th1/Th2 cytokine CBA Kit was used to measure IL-2, IL-4, IL-5, IL-10, TNF-α protein levels in a single sample. The cytokine capture beads were mixed with PE-conjugated detection antibodies and then incubated with recombinant cytokine standards or test samples to form sandwich complexes. The sample results were generated in graphic and tabular format, using BD PharMingen CBA analysis software. The results were expressed in pg/ml.
The specificity of the MUC-1-specific T cells generated (designated T-1191-MUC-1) was analyzed after IVS cycle 3 (see Materials and Methods) for their ability to release IFN-γ after stimulation with autologous B cells pulsed with each of the MUC-1 peptides listed in Table 1.

[4] = test system: T-cell lines T-rV, T-rF, T-rF(CEA), T-rF(MUC); assay type: cell-based, human; settings: 24 h
[5] = test system: CEA-specific T cells (V8T); assay type: cell-based, human; settings: 24 h
[6] = test system: MUC-1-specific T cells (T-1191-P93L); assay type: cell-based, human; settings: 24 h
HLA-A2 molecule [7] = molecular target: HLA-A2 molecule (Homo sapiens, UniProt P04439, D140Y/D185E/D98H/E176V/E277Q/G131W/G231S/I119V/I121R/I166T/I218V/L300P/L318F/N151K/N90K/P208A/P217A/Q86G/Q94H/R138H/R169H/T345S); experiment: T2 cell binding assay: peptide binding to HLA-A2 by flow cytometry; settings: peptides 0-50 μg/ml; MFI
[8] = test system: T-cell lines T-55, T-49, T-41; experiment: IFN-γ production by T-cell lines from cancer patients established with rF-CEA/MUC/TRICOM-infected DCs; assay type: cell-based, human; settings: autologous DCs as APC; peptides 25 μg/ml; effector-to-APC 10:1; 24 h
T-1191-MUC-1 cells [9] = experiment: CBA assay for production of cytokines by MUC-1 peptide-stimulated T cells; assay type: cell-based, human; settings: peptide 25 μg/ml; effector-to-APC 1:3; 24 h
Method: as §1
The ability of the P-93L and P-93I agonist peptides at various peptide concentrations, to activate the T-1191-MUC-1 cells, was compared. […] The P-93L agonist peptide was thus chosen for further study. The cytokine profile of T-1191-MUC-1 cells stimulated with APCs pulsed with either the P-92 or the P-93L peptide was then analyzed. A CBA assay was used for the analysis. […] No TNF-α could be detected in the supernatants at the 24-h time point.

peptide-HLA-A2 complexes = peptide-HLA-A2 complexes (Homo sapiens, UniProt P04439, D140Y/D185E/D98H/E176V/E277Q/G131W/G231S/I119V/I121R/I166T/I218V/L300P/L318F/N151K/N90K/P208A/P217A/Q86G/Q94H/R138H/R169H/T345S); experiment: Stability of peptide-HLA-A2 complex on T2 cells (brefeldin-A); assay type: binding; settings: 50 μg/ml overnight, 8-hour observation
Method: FIG. 2 is a graph showing the comparison of the stability of the complex of the P-92, P-93L or P-93I peptide with HLA-A2. T2 cells were incubated overnight with P-92 (open square), P-93L (closed square) or P-93I (closed triangle) peptide at a concentration of 50 μg/ml and then washed free of unbound peptide and incubated with brefeldin-A to block delivery of new class I molecules to the cell surface. At the indicated times, cells were stained for the presence of surface peptide-HLA-A2 complexes. Results are expressed in relative percentage of binding compared with 100% at time 0.
The stability of the peptide-MHC complex for peptides P-92 (native), P-93L and P-93I, was examined. Peptides were incubated with T2 cells overnight, the unbound peptides were washed off, and then incubated with brefeldin-A to block delivery of new class I molecules to the cell surface; at various time points cells were analyzed for the presence of peptide-HLA-A2 complexes.

[10] = Table 1, T2 cells, peptide 50 μg/ml

Sequence: ALWGQDVTSV [Peptide P-93L, MUC-1 agonist peptide]
- T2 binding (HLA-A2 molecule [1]; Table 4, P-92 analogues): 821 relative fluorescence values
- IFN-γ produced by T-18-P-92 [2]: 366.6 pg
- IFN-γ produced by T-18-P-93L [2]: 524.1 pg
- IFN-γ produced by T-23-P-92 [2]: 644.5 pg
- IFN-γ produced by T-23-P-93L [2]: 973.0 pg
- IFN-γ production by T-1191-MUC-1 cells at various peptide concentrations (FIG. 3) (T-1191-MUC-1 cells [3]; peptides 0-6.25 μg/ml): greatest level of IFN-γ production
- Production of IFN-γ by T-rF [4]: 446.0 pg/mL
- Production of IFN-γ by T-rF(CEA) [4]: <15.6 pg/mL
- Production of IFN-γ by T-rF(MUC) [4]: 626.8 pg/mL
- Production of IFN-γ by T-rV [4]: 514.0 pg/mL
- IFN-γ, CEA-specific CTL [5]: <15 pg/mL
- IFN-γ, MUC-1-specific CTL [6]: 458 pg/mL and 550 pg/mL
- binding to HLA-A2 at various peptide concentrations (FIG. 1) (HLA-A2 molecule [7]): higher levels than P-92 at all peptide concentrations
- IFN-γ secretion by T-41 [8]: 745.0 pg/mL
- IFN-γ secretion by T-49 [8]: 819.0 pg/mL
- IFN-γ secretion by T-55 [8]: 985.8 pg/mL
- IFN-γ (T-1191-MUC-1 cells [9]): 650 pg/ml/10^6 cell/ml
- IL-2 (T-1191-MUC-1 cells [9]): 366.9 pg/ml/10^6 cell/ml
- IL-4 (T-1191-MUC-1 cells [9]): <20 pg/ml/10^6 cell/ml
- IL-5 (T-1191-MUC-1 cells [9]): 140.9 pg/ml/10^6 cell/ml
- IL-10 (T-1191-MUC-1 cells [9]): <20 pg/ml/10^6 cell/ml
- TNF-α (T-1191-MUC-1 cells [9]): <20 pg/ml/10^6 cell/ml
- stability of the peptide-HLA-A2 complex (FIG. 2) (peptide-HLA-A2 complexes): more stable than P-92-HLA-A2 complexes

Sequence: LQRDISEMFL [Peptide P-1069]
- T2 binding (HLA-A2 molecule [1]; [10]): 433 relative fluorescence
- Production of IFN-γ, with peptide (T-1191-MUC-1 cells [3]): 288.0 pg/mL

Sequence: GTQSPFFLLL [Peptide P-4]
- T2 binding (HLA-A2 molecule [1]; [10]): 467 relative fluorescence
- Production of IFN-γ, with peptide (T-1191-MUC-1 cells [3]): 260.0 pg/mL

Sequence: LAFREGTINV [Peptide P-1105]
- T2 binding (HLA-A2 molecule [1]; [10]): 461 relative fluorescence
- Production of IFN-γ, with peptide (T-1191-MUC-1 cells [3]): <52.3 pg/mL

Sequence: REGTINVHDV [Peptide P-1108]
- T2 binding (HLA-A2 molecule [1]; [10]): 482 relative fluorescence
- Production of IFN-γ, with peptide (T-1191-MUC-1 cells [3]): <52.3 pg/mL

Sequence: YLSGADLNL [CAP1-6D, reference compound]
- IFN-γ produced by T-18-P-92 [2]: <26 pg
- IFN-γ produced by T-18-P-93L [2]: <26 pg
- IFN-γ produced by T-23-P-92 [2]: <26 pg
- IFN-γ produced by T-23-P-93L [2]: <26 pg
- Production of IFN-γ by T-rF [4]: 550.0 pg/mL
- Production of IFN-γ by T-rF(CEA) [4]: 729.2 pg/mL
- Production of IFN-γ by T-rF(MUC) [4]: <15.6 pg/mL
- Production of IFN-γ by T-rV [4]: 976.3 pg/mL
- IFN-γ, CEA-specific CTL [5]: 772 pg/mL and 820 pg/mL
- IFN-γ, MUC-1-specific CTL [6]: <15 pg/mL
- IFN-γ secretion by T-41 [8]: 933.4 pg/mL
- IFN-γ secretion by T-49 [8]: 974.2 pg/mL
- IFN-γ secretion by T-55 [8]: >1,000 pg/ml

Sequence: ALLVLVCVLV [Peptide P-1162]
- T2 binding (HLA-A2 molecule [1]; [10]): 431 relative fluorescence
- Production of IFN-γ, with peptide (T-1191-MUC-1 cells [3]): <52.3 pg/mL

Sequence: ALAIVYLIAL [Peptide P-1172]
- T2 binding (HLA-A2 molecule [1]; [10]): 372 relative fluorescence
- Production of IFN-γ, with peptide (T-1191-MUC-1 cells [3]): <52.3 pg/mL

Sequence: WGQDVTSVPV [Peptide P-94]
- T2 binding (HLA-A2 molecule [1]; [10]): 591 relative fluorescence
- Production of IFN-γ, with peptide (T-1191-MUC-1 cells [3]): 323.6 pg/mL

Sequence: LIALAVCQC (YLIALAVCQC) [Peptide P-1177]
- T2 binding (HLA-A2 molecule [1]; [10]): 338 relative fluorescence
- Production of IFN-γ, with peptide (T-1191-MUC-1 cells [3]): <52.3 pg/mL

Sequence: AMWGQDVTSV [Peptide M-93]
- T2 binding (HLA-A2 molecule [1]; Table 4, P-92 analogues): 723 relative fluorescence values
